Assay results taken from patent US8222487B2, “Application of ERF genes from Bupleurum kaoi” (National Tsing Hua University, priority 2009, dated 2012).

System: B. kaoi adventitious roots
Experiment: qRT-PCR of MeJA-induced gene transcripts in adventitious roots
Type: cell-based, Bupleurum kaoi
Details: 500 μM MeJA
Method: Adventitious root cultures were induced from the roots of germ-free seedlings of B. kaoi and were subcultured every 6 weeks by adding 0.2 g roots to a 125 ml flask containing 50 ml of B5 liquid medium supplemented with 2 mg 1^−1 NAA. Cultures were shaken using a rotary shaker at 100 rpm at 25° C. in the dark. To quantify the effect of MeJA on saikosaponin level, adventitious roots were treated with 500 and 1000 μM MeJA 2 weeks after subculture. Total saikosaponin was measured 2 weeks after MeJA treatment. To monitor expression of MeJA-responsive genes, the nutrient medium was refreshed 4 weeks after subculture and MeJA (500 μM) was applied 2 weeks after refreshment. Roots were harvested at 13 time points (5 min; 1, 2, 8, 24 hours; 2, 4, 6, 8 days; 2, 3, 4, 5 weeks) after the addition of the MeJA.
Total cellular RNA was extracted as described by Chang et al. (Chang et al., Plant Mol. Biol. (1993) 693-699) with some modifications. Three to five grams of tissue was frozen in liquid nitrogen and ground to a fine powder with mortar and pestle. The powder was added to 15 ml of prewarmed (65° C.) extraction buffer (2%, v/v hexadecyltrimethylammonium bromide (CTAB), 2%, v/v polyvinylpyrrolidinone K 30 (PVP), 100 mM Tris-HCl, pH 8.0, 25 mM EDTA, 2 M NaCl, 0.5 mg ml^−1 spermidine, 2% β-mercaptoethanol), and mixed completely by vigorous shaking. The mixture was extracted twice with an equal volume of chloroform:isoamyl alcohol (24:1). The RNA was precipitated by adding ¼ volume of cold 10 M LiCl to the aqueous phase and held for 12 to 18 h at −20° C. After centrifugation at 19,800×g at 4° C., the RNA was dissolved in 500 μl sterile DEPC H2O. The resuspended RNA was reextracted with chloroform:isoamyl alcohol (24:1). Three volumes of 100% ethanol and 1/10 volume of 3 M sodium acetate (pH 5.2) were added to the aqueous phase, and the solution was precipitated with liquid nitrogen for 15 min The RNA was spun down at 19,800×g for 30 min at 4° C. and washed with 80% ethanol. The dried pellet was resuspended in sterile DEPC H2O.
Each RNA sample of 10 μg in 9 μl sterile DEPC H2O and 1 μl oligo-d(T)18 primer (100 μM) was denatured at 90° C. for 5 min and chilled on ice for 10 min Then 4μ5× reaction buffer (250 mM Tris-HCl, pH 8.0, 375 mM KCl, 15 mM MgCl2), 2 μl 10 mM dNTP, 2 μl 100 mM dithiothreitol (DTT), and 0.5 μl RNasin ribonuclease inhibitor (40 U μl^−1, Promega) were added and incubated at 37° C. for 10 min. After the addition of 1.5 μl Moloney murine leukemia virus (MMLV) reverse transcriptase (200 U μl^−1, Gibco BRL), the reaction was carried out at 37° C. for 90 min, 95° C. for 5 min, then chilled on ice. qRT-PCR reactions were performed with a SYBR Green PCR Master Mix (Applied Biosystems) in a 7500 Real-Time PCR System (Applied Biosystems) using primers designed with Primer Express 2.0 Software (Applied Biosystems). Each reaction was performed in triplicate, and contained 4 μl of a 1:1000 dilution of synthesized cDNA, primers to a final concentration of 100 nM each, 5 μl of the SYBR Green PCR Master mix and sterile deionized H2O to a total volume of 10 μl. PCR reactions were carried out at 50° C. for 2 min, 95° C. for 10 min, 40 cycles of 95° C. for 15 s and 60° C. for 1 min. The specificity of the amplified products was evaluated by analysis of the dissociation curves generated by the equipment. Non-template controls were prepared to confirm absence of contamination. The ratio between the relative amounts of the target gene and the endogenous control gene, in the qRT-PCR reactions, was determined based on the 2^−ΔΔCt method. The target gene expression level was plotted as log10 RQ (RQ=2^−ΔΔCt).

## CC/C=C\CC1C(=O)CCC1CC(=O)OC (stereo not shown) [MeJA, Methyl jasmonate]
2 weeks
  Peroxidase AM409285 transcripts increase: 37 fold
5 min
  BkGST1 (AM409308) transcripts increase: 3 fold
  BkGST2 (AM409289) transcripts activation: 6 fold
1 h
  B. kaoi PAL (AM409299) transcripts increase: 3 fold
  BkERF1.2 (AM409280) transcripts increase: 133 fold
  Peroxidase AM409296 transcripts increase: 7 fold
  Phospholipase D alpha 1 (AM409303) transcripts induction: 6 fold
  Trypsin protease inhibitor AM409305 transcripts increase: 4 fold
2 h
  ACO gene (AM409282) induction: 5 fold
  BkAOC (AM409312) mRNA level induction: 9 fold
  BkERF1.1 (AM409278) transcripts increase: 41 fold
  IAA-amino acid hydrolase (AM409294) transcripts increase: 50 fold
  PIN (AM409287) transcripts increase: 166 fold
  Prephenate dehydratase (AM409309) transcripts induction: 7 fold
  Trypsin protease inhibitor AM409295 transcripts increase: 5 fold
8 h
  BkGST2 (AM409289) transcripts increase: 161 fold
  Peroxidase AM409285 transcripts increase: 5 fold
  Protease inhibitor (AM409279) transcripts increase: 4 fold
  Pyruvate kinase gene (AM409311) induction: 3 fold
  UDP-glucosyltransferase gene (AM409293) induction: 98 fold
24 h
  Serine protease inhibitor (AM409301) mRNA level increase: 3 fold
2 days
  Trypsin protease inhibitor AM409295 transcripts increase: 2051 fold
4 days
  IAA-amido synthase gene (AM409281) induction: 5 fold
  IAA-amino acid hydrolase (AM409294) transcripts increase: 139 fold
  Pyruvate kinase gene (AM409311) induction: 9 fold
6 days
  B. kaoi PAL (AM409299) transcripts increase: 23 fold
  Basic endochitinase gene (AM409300) induction: 726 fold
  BkSDR (AM409290) transcripts increase: 4 fold
  Glycosyl hydrolase family 18 protein gene (AM409313) induction: 61 fold
  LOX (AM409291) transcript induction: 4404 fold
  PIN (AM409287) transcripts increase: 178 fold
  Peroxidase AM409296 transcripts increase: 114 fold
  Phospholipase D alpha 1 (AM409303) transcripts induction: 44 fold
  Prephenate dehydratase (AM409309) transcripts induction: 27 fold
  Trypsin protease inhibitor AM409305 transcripts increase: 2944 fold
  Zinc finger C2H2 type gene (AM409288) transcripts induction: 118 fold
8 days
  ACO gene (AM409282) induction: 19 fold
  BkGST1 (AM409308) transcripts increase: 17 fold
  IAA-amido synthase gene (AM409281) induction: 10 fold
  MYB gene (AM409302) transcripts increase: 53 fold
  OPR2 (AM409310) expression level induction: 19 fold
  Protease inhibitor (AM409279) transcripts increase: 90 fold
  Serine protease inhibitor (AM409301) mRNA level increase: 81 fold
After 2 weeks
  Plant defensin (AM409284) transcripts increase: 5 fold
Primarily in 4-8 days
  Enoyl-CoA hydratase gene (AM409286) induction: 6 fold
Time not stated
  β-amyrin synthase gene (β-AS, AM421813) transcript level increase: 2 fold
